Assay results: US20100249402A1, “NOVEL BENZAMIDINE DERIVATIVES, PROCESS FOR THE PREPARATION THEREOF AND PHARMACEUTICAL COMPOSITION FOR PREVENTING OR TREATING OSTEPOROSIS COMPRISING THE SAME” (DONG WHA PHARMACEUTICAL CO. LTD., priority 2007, published 2010)

Legend:
HOS = assay: Cytotoxicity test (MTT), HOS; type: cell-based; settings: 10^−6 M, cultured for 72 hrs, in comparison with the control group
Method: (§1) The cytotoxic effect of the benzamidine derivative of the present invention was evaluated by carrying out the experiment described below.
(§2) The test substance was diluted in an appropriate solvent at a concentration of 10^−2 M. This substance was diluted in an appropriate culture medium for the cells used in the cytotoxicity test to a concentration of 10^−6M, and loaded into a 96-well plate in 100 μl per well. The cell lines to be used in the cytotoxicity test were plated on a 96-well plate in a dose of 1.0×10^4 cell/100 μl per well, and cultured for 72 hrs. 25 μl of MTT[3-(4,5-dimethyl-2-thiazolyl)-2,5-diphenyl-2H-tetrazolium bromide] dissolved in PBS (2 mg/mL) were added before 4 hrs of the end of culture. After completion of the reaction, the plates were centrifuged, the medium was discarded and 100 μl of DMSO was added to dissolve formazan. Finally, the absorbance of the developed plates was measured at 540 nm. The survival rates of the cells were expressed as % concentration values in comparison with the control group.

calvaria = assay: Cytotoxicity test (MTT), calvaria; type: cell-based; settings: 10^−6 M, cultured for 72 hrs, in comparison with the control group
Method: as §1, §2

[1] = tested on: osteoclast differentiation; assay: Inhibitory effects on osteoclast differentiation (bone marrow cell/osteoblast co-culture, TRAP staining); type: cell-based, mice; settings: 1 μm, 7 days co-culture, TRAP-positive osteoclasts with 3 or more nuclei, relative to negative controls; for inhibition at 1 µM: Mus musculus, Osteoclast, 168 h, read-out: Inhibition of osteoclast differentiation (%)
Method: The effect of the benzamidine derivative of the present invention on osteoclast formation and differentiation process was evaluated via co-culture with an osteoblast.
Tibia was aseptically ectomized from 6 to 8-week-old male ddY mice to harvest bone marrow cells by using a syringe (21G, Korea Green Cross). The bone marrow cells were suspended in 5 mL of an α-MEM medium (Gibco BRL Co., supplemented with sodium bicarbonate (2.0 g/L), streptomycin (100 mg/L) and penicillin ([…]), filtered and then sterilized). The harvested cells were centrifuged at 600×g for 5 minutes to collect the whole quantity. To remove the red blood cells in the bone marrow cells, 3 mL of Tris HCl (0.83% NH4Cl, pH 7.5) was added and well mixed. After centrifugation, the numbers of the eukaryotic cells in the harvested bone marrow cells were counted, and then immediately used for a co-culture system.
The progenitor bone and the parietal bone were aseptically ectomized from 1 to 2-day-old neonatal ICR mice, washed with a phosphate butter solution (PBS), and treated with a mixed enzyme solution (0.2% collagenase and 0.1% dispase) six to seven times (10, 10, 10, 20, 20 and 20 min), and then 3 to 6 groups of the cells, in which a large volume of cells having osteoblastic characteristics were contained, were intensively collected, and washed with medium (serum-free α-MEM). The washed cells were cultured in the α-MEM medium containing 10% FBS for 2 to 3 days. After sub-culturing, the collected cells were used for this experiment, and diluted to a concentration of 1×10^6 cells/mL for storage at −70° C.
The benzamidine derivative of the present invention was dissolved in a sterile distilled water or ethanol to be diluted to a desired concentration. The final volume of the sample added to the cell culture medium was set at a ratio of 1:1000.
The bone marrow cells prepared in the above 1-1 and the osteoblast were co-cultured. Both the bone marrow cells (25,000 cells/cm^2) and the osteoblast (10,000 cells/cm^2) were plated in a 96-well plate using α-MEM medium containing FBS, and then cultured with the samples to be tested for 7 days. Differentiation factors, such as dexamethasone (10^−7 M) and vitamin D (10^−8 M), were also co-added to the medium from the first day of cultivation. The medium was changed with a fresh media containing a mixture of the samples and the differentiation factors every 2 to 3 days.
TRAP was used as a marker to measure the matured osteoclast in consideration of its characteristics showing a positive reaction to a TRAP staining solution.
The TRAP staining solution was prepared in such the manner that 5 mg of naphthol AS-MS phosphate (sigma N-4875) as a substrate and 25 mg of a coloring agent (Fast Red Violet LB salt) were dissolved in N,N-dimethylformamide (about 0.5 mL). 50 ml of a 0.1 N […] buffer solution containing 50 mM tartaric acid (pH 5.0) was added thereto, and the mixture was stored in a refrigerator prior to use as a staining solution.
After culturing the cells for 7 days, the medium was removed from the wells, the cells were once washed with PBS, and then fixed with PBS containing 10% formalin for 2 to 5 min. The cells were fixed again in a mixed solution of ethanol and acetone (1/1) for about 1 min, and dried off. The cells were further treated by the TRAP staining solution for 15 minutes, and washed with water and dried off. The osteoclasts with 3 or more nuclei showing a TRAP-positive reaction were counted under a microscopic examination. Each of tests was confirmed at least three times. The inhibitory effect on osteoclast differentiation of each experimental group, relative to negative controls, was expressed as a percentage (%).

MC3T3-E1 = assay: Cytotoxicity test (MTT), MC3T3-E1; type: cell-based; settings: 10^−6 M, cultured for 72 hrs, in comparison with the control group
Method: as §1, §2

| Structure (SMILES) | Cell survival rate (HOS) [%] | Cell survival rate (calvaria) [%] | Inhibition of osteoclast differentiation (%) [1] [%] | Cell survival rate (MC3T3-E1) [%] | inhibition at 1 µM [1] [%] |
| --- | --- | --- | --- | --- | --- |
| Cc1nc(-c2ccc(OCCCCCOc3ccc(C(=N)NO)cc3)cc2)c(N(C)C)s1 [Example 41] | 107 | 93 | 94 | 91 |  |
| CN(C)c1sc(-c2ccccc2)nc1-c1ccc(OCCCCCOc2ccc(C(=N)NO)cc2)cc1 [Example 42, N-hydroxy-4-{5-[4-(5-dimethylamino-2-phenyl-thiazol-4-yl)-phenoxy]-pentyloxy}-benzamidine] | 100 | 98 |  | 91 | 49 |
| N=C(NO)c1ccc(OCCCCCOc2ccc(-c3nc(-c4ccccc4)sc3N)cc2)cc1 [Example 45, N-hydroxy-4-{5-[4-(5-amino-2-phenyl-thiazol-4-yl)-phenoxy]-pentyloxy}-benzamidine] | 104 | 83 |  | 81 | 91 |
| Cc1nc(-c2ccc(OCCCCCOc3ccc(C(=N)NO)cc3)cc2)c(N)s1 [Example 46, N-hydroxy-4-{5-[4-(5-amino-2-methyl-thiazol-4-yl)-phenoxy]-pentyloxy}-benzamidine] | 106 | 95 |  | 90 | 88 |
| N=C(NO)c1ccc(OCCCCCOc2ccc(-c3nc(-c4cccnc4)sc3N)cc2)cc1 [Example 47, N-hydroxy-4-{5-[4-(5-amino-2-pyridin-3-yl-thiazol-4-yl)-phenoxy]-pentyloxy}-benzamidine] | 112 | 99 |  | 97 | 86 |
| CNc1nc(-c2ccc(OCCCCCOc3ccc(C(=N)NO)cc3)cc2)c(CN2CCOCC2)s1 [Example 50, N-hydroxy-4-{5-[4-(2-methylamino-5-morpholin-4-ylmethyl-thiazol-4-yl)-phenoxy]-pentyloxy}-benzamidine] | 102 | 90 |  | 91 | 100 |
| N=C(NO)c1ccc(OCCCCCOc2ccc(-c3nc(N4CCOCC4)sc3CN3CCOCC3)cc2)cc1 [Example 51, N-hydroxy-4-{5-[4-(2-morpholin-4-yl-5-morpholin-4-ylmethyl-thiazol-4-yl)-phenoxy]-pentyloxy}-benzamidine] | 91 | 102 |  | 88 | 95 |
| N=C(NO)c1ccc(OCCCCCOc2ccc(-c3nc(N4CCCCC4)sc3N3CCOCC3)cc2)cc1 [Example 52, N-hydroxy-4-{5-[4-(5-morpholin-4-yl-2-piperidin-1-yl-thiazol-4-yl)-phenoxy]-pentyloxy}-benzamidine] | 97 | 97 |  | 94 | 91 |
